Reference: US9879243B2, “Culture medium for cell growth and transfection” (LIFE TECHNOLOGIES CORPORATION, priority 2001, dated 2018)

How the values were obtained:
Sp2/0 cells = assay: Effect of replacement compounds on the growth of Sp2/0 cells in CD Hybridoma medium without transferrin, three passages; assay type: cell-based; settings: third passage
Method: The ability of replacement compounds to support cellular growth in the absence of transferrin was evaluated using Sp2/0 cells maintained in CD Hybridoma medium (Invitrogen Corporation, Carlsbad, Calif.).
Stock cultures containing 5 μg/mL human holo-transferrin were prepared in CD Hybridoma medium. For replacement compound evaluation, Sp2/0 cells were established at an initial viable cell density of 0.5×10^5 cells/mL in stationary culture using 75 cm^2 tissue culture flasks in a final volume of 20 mL. All cultures were maintained at 37° C. in humidified air containing 8% CO2. To eliminate transferrin carry-over effects, cells were subcultured at the same seeding density at 4 day intervals for a total of three passages. Positive control cultures contained 5 μg/mL human holo-transferrin while negative control cultures were established in the absence of either transferrin or replacement compound. Replacement compound stocks were prepared at 0.1M-0.2M in ddH2O and solubilized when necessary using 5N NaOH or HCl. Iron complexes were established using 0.2M replacement compound and iron stocks mixed 1:1 (v/v) and incubated for 5-10 minutes at 22° C. All solutions containing replacement compounds were filter sterilized using a 0.22 μm Millex-GV filter prior to addition to transferrin and serum-free media.
Except where otherwise noted, replacement compounds were evaluated either alone or in combination with ferric chloride or ferrous sulfate at 25 μM, 50 μM and 100 μM. Values in the table represent the mean percentage of control growth for duplicate cultures determined at the third passage.
When added to the medium formulation un-complexed, the replacement compound is listed alone, when added as a complex with a transition metal, the source of the transition metal is listed with the replacement compound.

CHO cells = assay: Effect of replacement compounds on the growth of CHO cells in CD CHO medium without transferrin, three passages; assay type: cell-based, Chinese hamster; settings: third passage
Method: The ability of replacement compounds to support cellular growth in the absence of transferrin was evaluated using CHO cells maintained in CD CHO medium (Invitrogen Corporation, Carlsbad, Calif., the formulation of which is described in WO 98/08934). Stock cultures containing 5 μg/mL human holo-transferrin were prepared in CD CHO medium. For replacement compound evaluation, CHO cells were established in 125 mL shaker flasks at an initial viable seeding density of 1×10^5 cells/mL in a final volume of 20 mL. All cultures were maintained at 37° C. in humidified air containing 8% CO2. To eliminate transferrin carry-over effects, cells were subcultured at 4 day intervals for a total of three passages. Positive control cultures contained 5 μg/mL human holo-transferrin while negative control cultures were established in the absence of either transferrin or replacement compound. Replacement compound stocks were prepared at 0.1M-0.2M in ddH2O and solubilized when necessary using 5N NaOH or HCl. Iron complexes were established using 0.2M replacement compound and iron stocks mixed 1:1 (v/v) and incubated for 5-10 minutes at 22° C. All solutions containing replacement compounds were filter sterilized using a 0.22 μm Millex-GV filter prior to addition to transferrin and serum-free media.
Except where noted, replacement compounds were evaluated either alone or in combination with ferric chloride or ferrous sulfate at 25 μM, 50 μM and 100 μM. Values in the table represent the mean percentage of control growth for duplicate cultures determined at the third passage.
The ability of various replacement compounds to substitute for transferrin in the culture of CHO cells was determined. When added to the medium formulation un-complexed, the replacement compound is listed alone, when added as a complex with a transition metal, the source of the transition metal is listed with the metal binding compound.

293 cells = assay: Effect of replacement compounds on the growth of 293 cells in 293 SFM without transferrin, three passages; assay type: cell-based, human; settings: third passage, control 5 μg/mL human holo-transferrin
Method: Semi-confluent adherent cultures of 293 Cells (ATCC, CRL 1573) are readily adapted to suspension culture. The cells are first detached with a solution of Trypsin-EDTA (0.05% Trypsin, 0.53 mM Na4EDTA), and then resuspended in conventional medium supplemented with 10% FBS to inhibit the trypsin. The resuspended cells are centrifuged at 200×g for five minutes.
The initial seeding density of the 293 cells after conversion to suspension culture is 1×10^6 cells/mL. The cells are shaken on a rotary shaker at 150 rpm in a 37° C. incubator equilibrated with 8% CO2-92% air. […] Because 293 cells have a tendency to aggregate, the cells can be vortexed vigorously for approximately 45 seconds to obtain a predominantly single cell suspension at the time of passaging and counting. After several passages in suspension culture, the maximum achievable density can be determined.
For replacement compound evaluation, 293 cells were established in 125 mL shaker flasks at an initial viable seeding density of 2×10^5 cells/mL in a final volume of 20 mL. All cultures were maintained at 37° C. in humidified air containing 8% CO2. To eliminate transferrin carry-over effects, cells were subcultured at 4 day intervals for a total of three passages. At each subculturing, cells were seeded at a density of 2×10^5 cells/mL. Positive control cultures contained 5 μg/mL human holo-transferrin while negative control cultures were established in the absence of either transferrin or replacement compound. Replacement compound stocks were prepared at 0.1M-0.2M in ddH2O and solubilized when necessary using 5N NaOH or HCl. Iron complexes were established using 0.2 M replacement compound and iron stocks mixed 1:1 (v/v) and incubated for 5-10 minutes at 22° C. All solutions containing replacement compounds were filter sterilized using a 0.22 μm Millex-GV filter prior to addition to transferrin and serum-free media.
Except where noted, replacement compounds were evaluated either alone or in combination with ferric chloride or ferrous sulfate at 25 μM, 50 μM and 100 μM. When used in combination, the replacement compounds were used in equimolar concentration with iron ions. Values in Table 4 represent the mean percentage of control growth for duplicate cultures determined at the third passage.
When added to the medium formulation uncomplexed, the replacement compound is listed alone, when added as a complex with a transition metal, the source of the transition metal is listed with the replacement compound.

[1] = 25 μM, control 5 μg/mL human holo-transferrin
[2] = 25 μM, iron equimolar where combined

Row | Compound | mean percentage of control growth (Sp2/0 cells; [1]) | mean percentage of control growth (Sp2/0 cells; 50 μM) | mean percentage of control growth (Sp2/0 cells; 100 μM) | mean percentage of control growth (CHO cells; [1]) | mean percentage of control growth (CHO cells; 50 μM) | mean percentage of control growth (CHO cells; 100 μM) | mean percentage of control growth (293 cells; [2]) | mean percentage of control growth (293 cells; 50 μM) | mean percentage of control growth (293 cells; 100 μM)
1 | 4-Pyridoxic Acid•Ferric Chloride | 40 percentage of control growth | 73 percentage of control growth | 76 percentage of control growth | 55 percentage of control growth | 63 percentage of control growth | 100 percentage of control growth | 109 percentage of control growth | 85 percentage of control growth | 99 percentage of control growth
2 | O=C(O)c1cccc(O)c1O.[Cl][Fe]([Cl])[Cl] [2,3-Dihydrobenzoic Acid•Ferric Chloride] | – | – | – | 71 percentage of control growth | 0 percentage of control growth | 0 percentage of control growth | – | – | –
3 | O=C(O)c1ccccn1.[Cl][Fe]([Cl])[Cl] [2-Pyridinecarboxylic Acid•Ferric Chloride] | 0 percentage of control growth | 30 percentage of control growth | 48 percentage of control growth | 88 percentage of control growth | 89 percentage of control growth | 100 percentage of control growth | – | – | –
4 | [Cl][Fe]([Cl])[Cl].[O-][n+]1cccc(O)c1 [3-Hydroxypyridine-N-Oxide•Ferric Chloride] | 55 percentage of control growth | 54 percentage of control growth | 57 percentage of control growth | 77 percentage of control growth | 66 percentage of control growth | 101 percentage of control growth | 77 percentage of control growth | 72 percentage of control growth | 81 percentage of control growth
5 | O=c1cc(CO)occ1O [Kojic Acid] | 0 percentage of control growth | 0 percentage of control growth | 0 percentage of control growth | 0 percentage of control growth | 0 percentage of control growth | 0 percentage of control growth | – | – | –
6 | Aspartic Acid•Ferric Chloride | – | – | – | 77 percentage of control growth | 89 percentage of control growth | 112 percentage of control growth | 81 percentage of control growth | 86 percentage of control growth | 100 percentage of control growth
7 | Cysteine•Ferrous Sulfate | 85 percentage of control growth | 79 percentage of control growth | 67 percentage of control growth | 83 percentage of control growth | 64 percentage of control growth | 45 percentage of control growth | – | – | –
8 | Kojic Acid•Ferric Chloride | 0 percentage of control growth | 0 percentage of control growth | 0 percentage of control growth | 89 percentage of control growth | 88 percentage of control growth | 85 percentage of control growth | – | – | –
9 | Lysine•Ferric Chloride | – | – | – | 51 percentage of control growth | 79 percentage of control growth | 98 percentage of control growth | – | – | –
10 | Nicotinic Acid-N-Oxide•Ferric Chloride | – | – | – | 60 percentage of control growth | 84 percentage of control growth | 105 percentage of control growth | 104 percentage of control growth | 80 percentage of control growth | 79 percentage of control growth
11 | Sorbitol•Ferric Chloride | 94 percentage of control growth | 55 percentage of control growth | 60 percentage of control growth | 100 percentage of control growth | 107 percentage of control growth | 112 percentage of control growth | – | – | –
